Source: PubChem BioAssay (NCI)
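Interpolation was linear, between the two tested concentrations surrounding the appropriate level; five concentrations were tested over 48 hours in 96-well plates. Here, GI50 denotes the concentration required for 50% inhibition of growth. TGI: concentration producing complete growth inhibition.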

Columns and labels:
Experiment in all cases: DTP human tumour cell line panel, 48 h
[1] = system: HCT-116 colon
[2] = system: TK-10 renal
[3] = system: MDA-MB-231 breast
[4] = system: MDA-MB-435
[5] = system: OVCAR-4 ovarian
[6] = system: CAKI-1 renal
[7] = system: MOLT-4 leukemia
[8] = system: BT-549 breast
[9] = system: DU-145 prostate
[10] = system: OVCAR-3 ovarian

Row | Structure (SMILES) | TGI [1] | TGI [2] | TGI [3] | TGI [4] | TGI [5] | TGI [6] | TGI [7] | TGI [8] | TGI [9] | TGI [10] | GI50 [1] | GI50 [2] | GI50 [3] | GI50 [4] | GI50 [5] | GI50 [6] | GI50 [7] | GI50 [8] | GI50 [9] | GI50 [10]
1 | COc1ccc(Oc2cnn(C(Br)(Br)C(C)=O)c(=O)c2Br)cc1 | 19.2 µM | 26.3 µM | 32.5 µM | 23.4 µM | 32.6 µM | 24.6 µM | 3.56 µM | 32.1 µM | 42.2 µM | 13.6 µM |  |  |  |  |  |  |  |  |  | 
2 | CCOC(=O)C1=CC(C)(C(=O)OCC)Nc2c(nc(N)[nH]c2=O)N1 (stereo not given) | > 10 µM | > 10 µM | > 10 µM | > 10 µM | > 10 µM | > 10 µM | > 10 µM | > 10 µM | > 10 µM | > 10 µM |  |  |  |  |  |  |  |  |  | 
3 | CC(C)C(N)C(=O)NC(CCC(=O)NCCCCC(N)C(=O)NCCCNc1ccc([N+](=O)[O-])c2[nH]c3ccccc3c(=O)c12)C(N)=O (stereo not given) | > 100 µM | > 100 µM | > 100 µM | > 100 µM | > 100 µM | > 100 µM |  | 29.4 µM | > 100 µM | > 100 µM |  |  |  |  |  |  |  |  |  | 
4 | C[C@]12CC[C@@H]3c4ccc(O)cc4CC[C@H]3[C@@H]1C/C(=C\c1ccc(C#N)cc1)C2=O | > 100 µM | > 100 µM | > 100 µM | 76.8 µM | > 100 µM | > 100 µM | > 100 µM | > 100 µM | > 100 µM | > 100 µM |  |  |  |  |  |  |  |  |  | 
5 | COc1ccc(-n2nc(C)c3c(Nc4ccc(NC(=O)Nc5ccc(Cl)c(C(F)(F)F)c5)cc4)ncnc32)cc1 | 3.35 µM | 12.3 µM | 3.32 µM | 4.17 µM | > 100 µM | 3.51 µM | 7.49 µM | 6.34 µM | > 100 µM | 5.91 µM | 1.21 µM | 2.88 µM | 1.47 µM | 1.92 µM | 2.85 µM | 1.51 µM | 1.82 µM | 2.08 µM | 3.33 µM | 1.98 µM
6 | O=C1c2cccc(O)c2C(=O)c2c(OC3OC(CO)C(O)C(O)C3O)cccc21 (stereo not given) | 51 µM | > 100 µM | > 100 µM | 39.7 µM | 32.1 µM | > 100 µM |  | 93.3 µM | > 100 µM | > 100 µM |  |  |  |  |  |  |  |  |  | 
7 | CC(C)C1=C(O)C2=C(C(=O)C1=O)C1(C)CCCC(C)(C)C1C(O)C2OC=O (stereo not given) | 20.3 µM | 26.2 µM | 22.5 µM | 11.8 µM | 22.8 µM | 11.7 µM | 6.91 µM | 21.5 µM | 19.1 µM | 25.9 µM |  |  |  |  |  |  |  |  |  | 
8 | O=C1/C(=C/c2cccc([N+](=O)[O-])c2)Sc2scc(-c3ccc([N+](=O)[O-])cc3)[n+]21 | 34.9 µM |  | 72.5 µM | 37.5 µM | > 100 µM | 51.5 µM | > 100 µM | 28.8 µM | > 100 µM | > 100 µM |  |  |  |  |  |  |  |  |  | 
9 | COC1C(O)C(O[C@H]2CC[C@@]3(C)C(CC[C@@H]4[C@@H]3CC[C@]3(C)[C@@H](C(C)OC5OC(CO)C(O)C(O)C5O)CC[C@]43O)C2)OC(C)C1OC1OC(CO)C(O)C(O)C1O (stereo not given in full) | > 100 µM | > 100 µM | > 100 µM | > 100 µM | > 100 µM | > 100 µM | > 100 µM | > 100 µM | > 100 µM | > 100 µM |  |  |  |  |  |  |  |  |  | 
10 | CN(C)CCCNC(=O)c1c(O)c2ccccc2n(C)c1=O | > 100 µM | > 100 µM | > 100 µM | > 100 µM | > 100 µM | > 100 µM | > 100 µM | > 100 µM | > 100 µM | > 100 µM |  |  |  |  |  |  |  |  |  | 
11 | O=S1SC(=S)C2C=CC=CC21 (stereo not given) | > 100 µM | > 100 µM | > 100 µM | > 100 µM | > 100 µM | > 100 µM | > 100 µM | > 100 µM | > 100 µM | > 100 µM |  |  |  |  |  |  |  |  |  | 
12 | CC(=O)n1nc(-c2ccccc2)n(/N=C/c2ccc([N+](=O)[O-])o2)c1=O | 3.71 µM | 25.5 µM | 17.1 µM | 12.1 µM | 35.6 µM | 24.4 µM | 18.6 µM | 17.6 µM | 16.7 µM | 17 µM |  |  |  |  |  |  |  |  |  | 
13 | CC1(C)N=C2C(=O)c3c([nH]c4ccccc34)[C@]3(C)CCC1CC23 (stereo not given in full) | > 6.25 µM | > 6.25 µM | > 6.25 µM | > 6.25 µM | > 6.25 µM | > 6.25 µM | > 6.25 µM | > 6.25 µM | > 6.25 µM | > 6.25 µM |  |  |  |  |  |  |  |  |  | 
14 | C/C(=C\CO)CC/C=C(\C)CNc1ccc([N+](=O)[O-])cc1 | > 100 µM | 46.7 µM | > 100 µM | 84.9 µM | > 100 µM | > 100 µM | 18.4 µM | 37.5 µM | > 100 µM | 48.2 µM |  |  |  |  |  |  |  |  |  | 
15 | O=C(CC(=O)Nc1ccccc1)NNC(c1cc(N=Nc2ccc(Br)cc2)ccc1O)P(O)O (stereo not given) | 5.64 µM | > 10 µM | > 10 µM | > 10 µM | > 10 µM | > 10 µM | 4.15 µM | > 10 µM | > 10 µM | > 10 µM |  |  |  |  |  |  |  |  |  | 
16 | Nc1nc(Nc2ccccc2)sc1C(=O)c1ccco1 | 36.7 µM | 35.9 µM | 97.7 µM | 31.5 µM | 50.5 µM |  | 35.7 µM | 54.3 µM | 40.8 µM | 31.5 µM |  |  |  |  |  |  |  |  |  | 
17 | COc1cc2[nH]c(-c3ccccc3)cc(=O)c2c(OC)c1OC | > 100 µM | > 100 µM | > 100 µM | > 100 µM | > 100 µM |  | > 100 µM | > 100 µM | > 100 µM | > 100 µM |  |  |  |  |  |  |  |  |  | 
18 | CCN(CC)CCO/N=C1\CC[C@H]2[C@@H]3CCc4cc(OC)ccc4[C@H]3CC[C@]12C | 2.92 µM | 15.9 µM | 8.54 µM | 1.48 µM | 22.4 µM | 2.13 µM | 3.72 µM | 19 µM | 16.7 µM | 15.5 µM |  |  |  |  |  |  |  |  |  | 
19 | CC(C)=CCC[C@@H](C)C1=C(O)C(N)=C(C)C(=O)C1=O | > 100 µM | > 100 µM | > 100 µM | > 100 µM | > 100 µM | > 83.6 µM | > 56.6 µM | > 100 µM | > 100 µM | > 100 µM |  |  |  |  |  |  |  |  |  | 
